# Experimental data published in patent US20260158102A1, “CYCLIC PEPTIDE DERIVATIVE COMPOSITION FOR TREATING OR PREVENTING NEUROPATHIC PAIN AND/OR INFLAMMATORY PAIN” (DKS Co. Ltd., priority 2022, published 2026).
# Assay: Body weight measurement in rat STZ-induced diabetes model
# Type: in vivo
# Details: mean ± SE, in g (unit assumed)
# Procedure: Compound 9 (50 mg/mL) was diluted with water for injection to obtain a 1 mg/mL administration specimen. For the specimens to be administered at 0.1 mg/mL and 0.01 mg/mL, the specimen to be administered at 1 mg/mL was diluted stepwise with water for injection. Each administration specimen was divided into PP disposable tubes every day and stored in a storehouse (freezer: MDF-MU339H-PJ, PHC Corporation) under the condition of freezing (−30° C. to −20° C., measured value: −26.4 to −24.5° C.). Preparation was performed on the day before the start of administration.
# Water for injection was added to and dissolved in Pregabalin taken out from the capsule to obtain 2 mg/mL. It was prepared before use.
# • Animal species: rat (SPF) • Strain: Crl: CD (SD) • Date of animal acquisition, gender, age in weeks, number of animals acquired, and weight range after 1 day of acquisition • First and second courses: Apr. 6, 2022, male, 7 weeks old, 35 animals, 217 to 237 g • Third and fourth courses: Apr. 13, 2022, male, 7 weeks old, 35 animals, 216 to 235 g • Source: […].
# • Dose volume: calculated at 2 mL/kg based on the body weight on the day of administration. • Number of times of administration: once • Day of administration: 7 days before the day of starting administration of the test substance.
# • Dose volume: calculated at 1 mL/kg based on the body weight on the day of administration. • Number of times of administration: 9 times • Interval of administration: once every 3 days (evaluation was performed on the day after administration) • Day of starting administration: day 8 of STZ administration (day of STZ administration is counted as day 1).
# • Dose volume: calculated at 10 mL/kg based on the body weight on the day of administration. • Number of times of administration: Administration was performed once on the day of evaluation of neuropathic pain, twice in total, and on the other days of administration, a vehicle for a control substance (water for injection) was orally administered.
# • Measurement was performed every day after the day of STZ administration.
# The mean and standard error of each group were calculated for the 50% withdrawal threshold, body weight, and blood glucose level.
# The body weight was an integer.
# No significant difference test of body weight and blood glucose levels was performed.
compound,measurement,setting,value
CC[C@@]1(C)Oc2cc(ccc2O)C[C@H](NC)C(=O)N[C@@H](C(C)C)C(=O)N[C@@H]1C(=O)N[C@@H](CC(=O)O)C(=O)O [Compound 9],Body weight,"0.01 mg/kg iv, day 1 of STZ administration",295 ± 5
same,Body weight,"0.01 mg/kg iv, day 2 of STZ administration",281 ± 4
same,Body weight,"0.01 mg/kg iv, day 3 of STZ administration",277 ± 4
same,Body weight,"0.01 mg/kg iv, day 4 of STZ administration",280 ± 5
same,Body weight,"0.01 mg/kg iv, day 5 of STZ administration",282 ± 5
same,Body weight,"0.01 mg/kg iv, day 6 of STZ administration",287 ± 5
same,Body weight,"0.01 mg/kg iv, day 7 of STZ administration",291 ± 5
same,Body weight,"0.01 mg/kg iv, day 8 of STZ administration",290 ± 6
same,Body weight,"0.01 mg/kg iv, day 9 of STZ administration",292 ± 5
same,Body weight,"0.01 mg/kg iv, day 10 of STZ administration",297 ± 6
same,Body weight,"0.01 mg/kg iv, day 11 of STZ administration",298 ± 6
same,Body weight,"0.01 mg/kg iv, day 12 of STZ administration",302 ± 7
same,Body weight,"0.01 mg/kg iv, day 13 of STZ administration",304 ± 6
same,Body weight,"0.01 mg/kg iv, day 14 of STZ administration",306 ± 7
same,Body weight,"0.01 mg/kg iv, day 15 of STZ administration",306 ± 8
same,Body weight,"0.01 mg/kg iv, day 16 of STZ administration",307 ± 8
same,Body weight,"0.01 mg/kg iv, day 17 of STZ administration",309 ± 8
same,Body weight,"0.01 mg/kg iv, day 18 of STZ administration",311 ± 8
same,Body weight,"0.01 mg/kg iv, day 19 of STZ administration",309 ± 8
same,Body weight,"0.01 mg/kg iv, day 20 of STZ administration",312 ± 8
same,Body weight,"0.01 mg/kg iv, day 21 of STZ administration",312 ± 8
same,Body weight,"0.01 mg/kg iv, day 22 of STZ administration",311 ± 9
same,Body weight,"0.01 mg/kg iv, day 23 of STZ administration",312 ± 9
same,Body weight,"0.01 mg/kg iv, day 24 of STZ administration",310 ± 9
same,Body weight,"0.01 mg/kg iv, day 25 of STZ administration",312 ± 10
same,Body weight,"0.01 mg/kg iv, day 26 of STZ administration",315 ± 10
same,Body weight,"0.01 mg/kg iv, day 27 of STZ administration",308 ± 10
same,Body weight,"0.01 mg/kg iv, day 28 of STZ administration",312 ± 10
same,Body weight,"0.01 mg/kg iv, day 29 of STZ administration",311 ± 11
same,Body weight,"0.01 mg/kg iv, day 30 of STZ administration",313 ± 11
same,Body weight,"0.01 mg/kg iv, day 31 of STZ administration",309 ± 11
same,Body weight,"0.01 mg/kg iv, day 32 of STZ administration",310 ± 12
same,Body weight,"0.01 mg/kg iv, day 33 of STZ administration",308 ± 12
same,Body weight,"0.01 mg/kg iv, day 34 of STZ administration",313 ± 12
same,Body weight,"0.1 mg/kg iv, day 1 of STZ administration",293 ± 4
same,Body weight,"0.1 mg/kg iv, day 2 of STZ administration",279 ± 5
same,Body weight,"0.1 mg/kg iv, day 3 of STZ administration",275 ± 5
same,Body weight,"0.1 mg/kg iv, day 4 of STZ administration",277 ± 6
same,Body weight,"0.1 mg/kg iv, day 5 of STZ administration",280 ± 5
same,Body weight,"0.1 mg/kg iv, day 6 of STZ administration",285 ± 5
same,Body weight,"0.1 mg/kg iv, day 7 of STZ administration",289 ± 5
same,Body weight,"0.1 mg/kg iv, day 8 of STZ administration",287 ± 5
same,Body weight,"0.1 mg/kg iv, day 9 of STZ administration",292 ± 5
same,Body weight,"0.1 mg/kg iv, day 10 of STZ administration",295 ± 6
same,Body weight,"0.1 mg/kg iv, day 11 of STZ administration",298 ± 6
same,Body weight,"0.1 mg/kg iv, day 12 of STZ administration",300 ± 4
same,Body weight,"0.1 mg/kg iv, day 13 of STZ administration",303 ± 6
same,Body weight,"0.1 mg/kg iv, day 14 of STZ administration",305 ± 5
same,Body weight,"0.1 mg/kg iv, day 15 of STZ administration",300 ± 6
same,Body weight,"0.1 mg/kg iv, day 16 of STZ administration",302 ± 7
same,Body weight,"0.1 mg/kg iv, day 17 of STZ administration",307 ± 7
same,Body weight,"0.1 mg/kg iv, day 18 of STZ administration",305 ± 7
same,Body weight,"0.1 mg/kg iv, day 19 of STZ administration",310 ± 8
same,Body weight,"0.1 mg/kg iv, day 20 of STZ administration",312 ± 8
same,Body weight,"0.1 mg/kg iv, day 21 of STZ administration",307 ± 7
same,Body weight,"0.1 mg/kg iv, day 22 of STZ administration",311 ± 7
